Laboratory results published in US20250263400A1, “GCN2 MODULATOR COMPOUNDS” (Alesta Therapeutics BV, priority 2022, published 2025).

Biological target: GCN2 (Homo sapiens (Human), UniProt Q9P2K8)
Test: GCN2 enzyme assay
Type: biochemical
Procedure: For GCN2 enzyme assays, testing compounds were prepared at proper concentrations in DMSO solution. IC50 values were calculated from a remaining activity using read conversion ratio.

Chain of GCN2 (Q9P2K8 whole entry, species assumed): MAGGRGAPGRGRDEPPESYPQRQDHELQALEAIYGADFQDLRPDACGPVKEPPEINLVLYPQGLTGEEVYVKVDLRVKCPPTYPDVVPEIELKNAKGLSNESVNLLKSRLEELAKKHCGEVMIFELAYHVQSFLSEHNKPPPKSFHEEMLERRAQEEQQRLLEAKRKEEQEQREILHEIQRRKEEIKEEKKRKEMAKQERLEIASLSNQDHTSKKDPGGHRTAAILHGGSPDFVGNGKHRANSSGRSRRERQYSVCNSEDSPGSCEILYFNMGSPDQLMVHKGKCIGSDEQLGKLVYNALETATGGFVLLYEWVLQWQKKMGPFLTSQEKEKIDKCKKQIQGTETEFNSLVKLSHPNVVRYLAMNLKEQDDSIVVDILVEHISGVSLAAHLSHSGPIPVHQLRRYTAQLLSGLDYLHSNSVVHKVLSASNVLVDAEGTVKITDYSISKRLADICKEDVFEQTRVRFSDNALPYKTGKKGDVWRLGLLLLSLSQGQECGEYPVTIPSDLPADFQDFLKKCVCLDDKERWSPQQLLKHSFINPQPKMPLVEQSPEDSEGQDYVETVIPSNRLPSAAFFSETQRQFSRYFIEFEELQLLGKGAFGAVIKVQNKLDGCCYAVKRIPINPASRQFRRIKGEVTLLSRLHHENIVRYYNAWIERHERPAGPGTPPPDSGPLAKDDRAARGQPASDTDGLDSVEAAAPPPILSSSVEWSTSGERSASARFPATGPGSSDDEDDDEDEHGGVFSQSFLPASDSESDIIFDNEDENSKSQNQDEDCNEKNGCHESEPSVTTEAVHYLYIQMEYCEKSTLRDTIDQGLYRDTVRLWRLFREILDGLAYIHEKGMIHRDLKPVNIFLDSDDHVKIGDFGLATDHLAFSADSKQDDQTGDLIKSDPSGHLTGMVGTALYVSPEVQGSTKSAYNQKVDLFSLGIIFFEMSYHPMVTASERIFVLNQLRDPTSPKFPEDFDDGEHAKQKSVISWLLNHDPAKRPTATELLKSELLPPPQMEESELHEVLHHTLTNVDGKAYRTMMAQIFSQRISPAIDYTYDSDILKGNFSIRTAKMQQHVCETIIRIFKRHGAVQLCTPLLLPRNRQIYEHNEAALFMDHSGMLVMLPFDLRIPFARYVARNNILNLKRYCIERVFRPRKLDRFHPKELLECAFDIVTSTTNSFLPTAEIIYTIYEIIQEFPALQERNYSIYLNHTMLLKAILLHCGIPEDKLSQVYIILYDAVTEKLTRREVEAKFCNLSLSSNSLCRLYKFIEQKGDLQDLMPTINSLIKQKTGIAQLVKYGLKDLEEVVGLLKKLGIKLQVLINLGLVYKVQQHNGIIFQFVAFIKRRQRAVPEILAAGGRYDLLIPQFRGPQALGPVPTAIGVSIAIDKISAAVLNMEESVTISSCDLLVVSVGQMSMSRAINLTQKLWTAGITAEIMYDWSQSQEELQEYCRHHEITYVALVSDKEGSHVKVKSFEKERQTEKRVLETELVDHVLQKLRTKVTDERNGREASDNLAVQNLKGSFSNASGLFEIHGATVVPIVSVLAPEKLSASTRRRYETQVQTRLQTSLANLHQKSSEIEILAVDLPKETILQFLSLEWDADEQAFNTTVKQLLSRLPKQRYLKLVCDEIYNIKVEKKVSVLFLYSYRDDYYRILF

Q: `CCc1cc(-c2c(Cl)cnc(NS(=O)(=O)c3cc(Cl)cc(CO)c3Cl)c2Cl)cc2cnc(N)nc12` [Compound 35, N-(4-(2-amino-8-ethylquinazolin-6-yl)-3,5-dichloropyridin-2-yl)-2,5-dichloro-3-(hydroxymethyl)ben-zenesulfonamide] was tested. Which IC50 did it give?
A: The IC50 was 0.00882 µM.

Q: Which IC50 does the source give for `CCc1cc(-c2c(F)cnc(NS(=O)(=O)c3cc(Cl)cnc3OC)c2F)cc2cnc(N)nc12` [Compound 38, N-(4-(2-amino-8-ethylquinazolin-6-yl)-3,5-difluoropyridin-2-yl)-5-chloro-2-methoxypyridine-3-sulfonamide] here?
A: Its IC50 is 0.00732 µM.

Q: How did the IC50 turn out when `CCc1cc(-c2c(Cl)cnc(NS(=O)(=O)c3cc(Cl)cnc3OC)c2Cl)cc2cnc(N)nc12` [Compound 40, N-(4-(2-amino-8-ethylquinazolin-6-yl)-3,5-dichloropyridin-2-yl)-5-chloro-2-methoxypyridine-3-sulfonamide] was run?
A: Its IC50 is 0.00833 µM.

Q: `CCc1cc(-c2c(F)ccc(NS(=O)(=O)c3cc(Cl)cnc3OC)c2F)cc2cnc(N[C@H]3CC[C@H](NC)CC3)nc12` [Compound 45, 5-chloro-N-(3-(8-ethyl-2-(((1R,4R)-4-(methylamino)cyclo-hexyl)amino)quina-zolin-6-yl)-2,4-difluorophenyl)-2-methoxypyridine-3-sulfonamide] was tested. Which IC50 did it give?
A: The IC50 was 0.0883 µM.

Q: For `CN[C@H]1CC[C@H](Nc2ncc3cc(-c4c(F)ccc(NS(=O)(=O)c5cc(Cl)cnc5OC)c4F)ccc3n2)CC1` [Compound 48, 5-chloro-N-(2,4-difluoro-3-(2-(((1R,4R)-4-(methylamino)cyclo-hexyl)amino)quina-zolin-6-yl)phenyl)-2-methoxypyridine-3-sulfonamide], which IC50 is on record?
A: The IC50 was 0.00323 µM.

Q: With `CCc1cc(-c2c(F)ccc(NS(=O)(=O)c3cc(Cl)cnc3OC)c2F)cc2cnc(N[C@H]3CC[C@H](N)CC3)nc12` [Compound 52, N-(3-(2-(((1R,4R)-4-aminocyclohexyl)amino)-8-ethylquinazolin-6-yl)-2,4-difluorophenyl)-5-chloro-2-methoxypyridine-3-sulfonamide] as the molecule, how does the IC50 read?
A: Its IC50 is 0.00513 µM.

Q: `CN(C)[C@H]1CC[C@H](Nc2ncc3cc(-c4c(F)ccc(NS(=O)(=O)c5cc(Cl)cc(CO)c5Cl)c4F)ccc3n2)CC1` [Compound 53, 2,5-dichloro-N-(3-(2-(((1R,4R)-4-(dimethylamino)cy-clohexyl)amino)quinazolin-6-yl)-2,4-difluorophenyl)-3-(hydroxymethyl)ben-zenesulfonamide] was tested. Which IC50 did it give?
A: Its IC50 is 0.00111 µM.

Q: `CCc1cc(-c2c(F)ccc(NS(=O)(=O)c3cc(Cl)cnc3OC)c2F)cc2cnc(N[C@@H]3CC[C@@H](C(=O)NCCOC)C3)nc12` [Compound 54, (1R,3R)-3-((6-(3-((5-chloro-2-methoxypyridine)-3-sulfonamido)-2,6-difluorophenyl)-8-ethylquinazolin-2-yl)amino)-N-(2-methoxyethyl)cyclo-pentane-1-carboxamide] was tested. Which IC50 did it give?
A: Its IC50 is 0.0343 µM.

Q: `CCc1cc(-c2c(F)ccc(NS(=O)(=O)c3cc(Cl)cnc3OC)c2F)cc2cnc(N[C@H]3CC[C@H](N(C)C)CC3)nc12` [Compound 57, 5-chloro-N-(3-(2-(((1R,4R)-4-(dimethylamino)cy-clohexyl)amino)-8-ethylquinazolin-6-yl)-2,4-difluorophenyl)-2-methoxypyridine-3-sulfonamide] was tested. Which IC50 did it give?
A: Its IC50 is 0.00395 µM.

Q: Which IC50 does the source give for `COc1ncc(Cl)cc1S(=O)(=O)Nc1ccc(F)c(-c2ccc3nc(N[C@H]4CC[C@H](N(C)C)CC4)ncc3c2)c1F` [Compound 61, 5-chloro-N-(3-(2-(((1R,4R)-4-(dimethylamino)cy-clohexyl)amino)quinazolin-6-yl)-2,4-difluorophenyl)-2-methoxypyridine-3-sulfonamide] here?
A: Its IC50 is 0.00235 µM.

Q: With `COc1ncc(Cl)cc1S(=O)(=O)Nc1ccc(F)c(-c2ccc3nc(N[C@H]4CC[C@H](N)CC4)ncc3c2)c1F` [Compound 62, N-(3-(2-(((1R,4R)-4-aminocyclohexyl)amino)quinazolin-6-yl)-2,4-difluorophenyl)-5-chloro-2-methoxypyridine-3-sulfonamide] as the molecule, how does the IC50 read?
A: The IC50 was 0.00164 µM.

Q: With `CCc1cc(-c2c(F)ccc(NS(=O)(=O)c3ccccc3Cl)c2F)cc2cnc(N[C@H]3CC[C@H](N(C)C)CC3)nc12` [Compound 64, 2-chloro-N-(3-(2-(((1R,4R)-4-(dimethylamino)cy-clohexyl)amino)-8-ethylquinazolin-6-yl)-2,4-difluorophenyl)ben-zenesulfonamide] as the molecule, how does the IC50 read?
A: The IC50 was 0.0268 µM.

Q: Which IC50 does the source give for `CCc1cc(-c2c(F)ccc(NS(=O)(=O)c3ccccc3Cl)c2F)cc2cnc(N[C@H]3CC[C@H](NC)CC3)nc12` [Compound 65, 2-chloro-N-(3-(8-ethyl-2-(((1R,4R)-4-(methylamino)cyclo-hexyl)amino)quina-zolin-6-yl)-2,4-difluorophenyl)ben-zenesulfonamide] here?
A: Its IC50 is 0.0437 µM.

Q: `CN[C@H]1CC[C@H](Nc2ncc3cc(-c4c(F)ccc(NS(=O)(=O)c5ccccc5Cl)c4F)ccc3n2)CC1` [Compound 66, 2-chloro-N-(2,4-difluoro-3-(2-(((1R,4R)-4-(methylamino)cyclo-hexyl)amino)quina-zolin-6-yl)phenyl)benzene-sulfonamide] was tested. Which IC50 did it give?
A: Its IC50 is 0.0632 µM.

Q: `CCc1cc(-c2c(F)ccc(NS(=O)(=O)c3ccccc3Cl)c2F)cc2cnc(N[C@H]3CC[C@H](N)CC3)nc12` [Compound 68, N-(3-(2-(((1R,4R)-4-aminocyclohexyl)amino)-8-ethylquinazolin-6-yl)-2,4-difluorophenyl)-2-chlorobenzenesulfon-amide] was tested. Which IC50 did it give?
A: Its IC50 is 0.0398 µM.

Q: For `CN(C)[C@H]1CC[C@H](Nc2ncc3cc(-c4c(F)ccc(NS(=O)(=O)c5ccccc5Cl)c4F)ccc3n2)CC1` [Compound 70, 2-chloro-N-(3-(2-(((1R,4R)-4-(dimethylamino)cy-clohexyl)amino)quinazolin-6-yl)-2,4-difluorophenyl)ben-zenesulfonamide], which IC50 is on record?
A: The IC50 was 0.0812 µM.

Q: For `N[C@H]1CC[C@H](Nc2ncc3cc(-c4c(F)ccc(NS(=O)(=O)c5ccccc5Cl)c4F)ccc3n2)CC1` [Compound 71, N-(3-(2-(((1R,4R)-4-aminocyclohexyl)amino)quinazolin-6-yl)-2,4-difluorophenyl)-2-chlorobenzenesulfon-amide 2,2,2-trifluoroacetate], which IC50 is on record?
A: Its IC50 is 0.123 µM.

Q: Which IC50 does the source give for `Nc1ncc2cc(-c3c(Cl)cnc(NS(=O)(=O)c4ccccc4Cl)c3Cl)ccc2n1` [Compound 73, N-(4-(2-aminoquinazolin-6-yl)-3,5-dichloropyridin-2-yl)-2-chlorobenzenesulfon-amide] here?
A: The IC50 was 0.0194 µM.

Q: For `Nc1ncc2cc(-c3c(F)cnc(NS(=O)(=O)c4ccccc4Cl)c3F)ccc2n1` [Compound 75, N-(4-(2-aminoquinazolin-6-yl)-3,5-difluoropyridin-2-yl)-2-chlorobenzenesulfon-amide], which IC50 is on record?
A: Its IC50 is 0.367 µM.
